# Assay results from PubChem BioAssay AID1259411 (Chemical Carcinogenesis Research Information System (CCRIS), 2018).
# Active and inactive are the calls of the source. The rule behind the calls is not given here.
# System: rodent carcinogenicity bioassays, tumor incidence
# Assay: CCRIS carcinogenicity studies
# Procedure, shortened: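 Archive of carcinogenicity, mutagenicity, tumor promotion and tumor inhibition results drawn from journals, NCI reports and other sources, expert-reviewed; covers 1985-2011 and is no longer updated.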
smiles,measurement,setting,value
OCC(CO)(CBr)CBr,carcinogen call,"Species: GUPPIE, Strain/Sex: MALE, Route: AQUARIUM WATER, Dose: 0, 24, 60, 150 MG/L FOR 9 MO THEN IN CLEAN WATER FOR 7 MO (STUDY DURATION: 16 MO), Dose: 0, 24, 60, 150 MG/L FOR 9 MO THEN IN CLEAN WATER FOR 7 MO (STUDY DURATION: 16 MO), Tumor Site: Type of Lesion: LIVER: HEPATOCELLULAR ADENOMA OR CARCINOMA",active; positive
same,carcinogen call,"Species: GUPPIE, Strain/Sex: MALE, Route: AQUARIUM WATER, Dose: 0, 24, 60, 150 MG/L FOR 16 MO (STUDY DURATION: 16 MO), Dose: 0, 24, 60, 150 MG/L FOR 16 MO (STUDY DURATION: 16 MO), Tumor Site: Type of Lesion: LIVER: HEPATOCELLULAR ADENOMA OR CARCINOMA","active; positive; due to mortality, exposure in 150 mg/l group terminated on day 443"
same,carcinogen call,"Species: MEDAKA, Strain/Sex: FEMALE, Route: AQUARIUM WATER, Dose: 0, 24, 60, 150 MG/L FOR 14 MO (STUDY DURATION: 14 MO), Dose: 0, 24, 60, 150 MG/L FOR 14 MO (STUDY DURATION: 14 MO)",inactive; negative
same,carcinogen call,"Species: MEDAKA, Strain/Sex: MALE, Route: AQUARIUM WATER, Dose: 0, 24, 60, 150 MG/L FOR 9 MO THEN IN CLEAN WATER FOR 5 MO (STUDY DURATION: 14 MO), Dose: 0, 24, 60, 150 MG/L FOR 9 MO THEN IN CLEAN WATER FOR 5 MO (STUDY DURATION: 14 MO), Tumor Site: Type of Lesion: LIVER: HEPATOCELLULAR ADENOMA OR CARCINOMA",active; positive
same,carcinogen call,"Species: MEDAKA, Strain/Sex: MALE, Route: AQUARIUM WATER, Dose: 0, 24, 60, 150 MG/L FOR 14 MO (STUDY DURATION: 14 MO), Dose: 0, 24, 60, 150 MG/L FOR 14 MO (STUDY DURATION: 14 MO), Tumor Site: Type of Lesion: LIVER: HEPATOCELLULAR ADENOMA OR CARCINOMA",active; positive
same,carcinogen call,"Species: MOUSE, Strain/Sex: B6C3F1/FEMALE, Route: ORAL, Dose: 0, 312, 625, 1250 PPM IN DIET FOR 104-105 WK (STUDY DURATION: 106 WK), Dose: 0, 312, 625, 1250 PPM IN DIET FOR 104-105 WK (STUDY DURATION: 106 WK), Tumor Site: Type of Lesion: HARDERIAN GLAND: ADENOMA, CARCINOMA, LUNG: ALVEOLAR/BRONCHIOLAR ADENOMA OR CARCINOMA, SKIN(SUBCUTANEOUS TISSUE): SARCOMA, Tumor Site: Type of Lesion: HARDERIAN GLAND: ADENOMA, CARCINOMA, LUNG: ALVEOLAR/BRONCHIOLAR ADENOMA OR CARCINOMA, SKIN(SUBCUTANEOUS TISSUE): SARCOMA",active; positive
same,carcinogen call,"Species: MOUSE, Strain/Sex: B63CF1/MALE, Route: ORAL, Dose: 0, 312, 625, 1250 PPM IN DIET FOR 104-105 WK (STUDY DURATION: 106 WK), Dose: 0, 312, 625, 1250 PPM IN DIET FOR 104-105 WK (STUDY DURATION: 106 WK), Tumor Site: Type of Lesion: HARDERIAN GLAND: ADENOMA, ADENOMA OR CARCINOMA, LUNG: ALVEOLAR/BRONCHIOLAR ADENOMA, ALVEOLAR/BRONCHIOLAR CARCINOMA",active; positive
same,carcinogen call,"Species: RAT, Strain/Sex: F344/FEMALE, Route: ORAL, Dose: 0, 2500, 5000, 10000 PPM IN DIET FOR 104-105 WK (STUDY DURATION: 105 WK), Dose: 0, 2500, 5000, 10000 PPM IN DIET FOR 104-105 WK (STUDY DURATION: 105 WK), Tumor Site: Type of Lesion: ESOPHAGUS: SQUAMOUS CELL PAPILLOMA, MAMMARY GLAND: FIBROADENOMA, ORAL CAVITY: SQUAMOUS CELL PAPILLOMA OR SQUAMOUS CELL C, Tumor Site: Type of Lesion: ESOPHAGUS: SQUAMOUS CELL PAPILLOMA, MAMMARY GLAND: FIBROADENOMA, ORAL CAVITY: SQUAMOUS CELL PAPILLOMA OR SQUAMOUS CELL C",active; positive
same,carcinogen call,"Species: RAT, Strain/Sex: F344/MALE, Route: ORAL, Dose: 0, 2500, 5000, 10000 PPM IN DIET FOR 104-105 WK (STUDY DURATION: 105 WK), Dose: 0, 2500, 5000, 10000 PPM IN DIET FOR 104-105 WK (STUDY DURATION: 105 WK), Tumor Site: Type of Lesion: ESOPHAGUS: SQUAMOUS CELL PAPILLOMA, LARGE INTESTINE: ADENOMATOUS POLYP, MAMMARY GLAND: FIBROADENOMA, FIBROADENOMA OR ADE, Tumor Site: Type of Lesion: ESOPHAGUS: SQUAMOUS CELL PAPILLOMA, LARGE INTESTINE: ADENOMATOUS POLYP, MAMMARY GLAND: FIBROADENOMA, FIBROADENOMA OR ADE",active; positive
same,carcinogen call,"Species: RAT, Strain/Sex: F344/MALE, Route: ORAL, Dose: 0, 20000 PPM IN DIET FOR 3 MO FOLLOWED BY NORMAL DIET FOR 21 MO (STUDY DURATION: 2 YR), Tumor Site: Type of Lesion: LARGE INTESTINE: ADENOMATOUS POLYP, LUNG: ALVEOLAR/BRONCHIOLAR ADENOMA OR CARCINOMA, MAMMARY GLAND: FIBROADENOMA, ORAL C, Tumor Site: Type of Lesion: LARGE INTESTINE: ADENOMATOUS POLYP, LUNG: ALVEOLAR/BRONCHIOLAR ADENOMA OR CARCINOMA, MAMMARY GLAND: FIBROADENOMA, ORAL C",active; positive
ClC/C=C/CCl,carcinogen call,"Species: RAT, Strain/Sex: CD/MALE, Route: INHALATION, Dose: 0, 0.1, 0.3, 1.0 PPM 6 HR/D 5 D/WK FOR 86 WK (STUDY DURATION: 86 WK), Dose: 0, 0.1, 0.3, 1.0 PPM 6 HR/D 5 D/WK FOR 86 WK (STUDY DURATION: 86 WK), Tumor Site: Type of Lesion: NASAL CAVITY: ADENOMA, ADENOCARCINOMA, CARCINOSARCOMA, MIXED CARCINOMA",active; positive
same,carcinogen call,"Species: Rat, Strain/Sex: CD BR/Female (140/group), Route: Inhalation, Dose: 0, 0.5 6 hr/d for 2 yr, 5 ppm 6 hr/d lowered to 2.5 ppm after 7 mo and continued an additional 5 mo with a 1-yr maintena, Dose: 0, 0.5 6 hr/d for 2 yr, 5 ppm 6 hr/d lowered to 2.5 ppm after 7 mo and continued an additional 5 mo with a 1-yr maintena, Tumor Site: Type of Lesion: Nasal Passages: Benign (0 (0%), 23 (18%), 5 (3.9%)) and malignant tumors (0 (0%), 2 (1.6%), 113 (88.3%))",active; positive
same,carcinogen call,"Species: Rat, Strain/Sex: CD BR/Male (140/group), Route: Inhalation, Dose: 0, 0.5 6 hr/d for 2 yr, 5 ppm 6 hr/d lowered to 2.5 ppm after 7 mo and continued an additional 5 mo with a 1-yr maintena, Dose: 0, 0.5 6 hr/d for 2 yr, 5 ppm 6 hr/d lowered to 2.5 ppm after 7 mo and continued an additional 5 mo with a 1-yr maintena, Tumor Site: Type of Lesion: Nasal Passages: Benign (0 (0%), 33 (25.4%), 2 (1.6%)) and malignant tumors (0 (0%), 11 (8.5%), 114 (88.4%))",active; positive
CCC(=O)Oc1ccc2c(c1)CC[C@@H]1[C@@H]2CC[C@]2(C)[C@@H](OC(=O)CC)CC[C@@H]12,carcinogen call,"Species: MOUSE, Route: SUBCUTANEOUS, Tumor Site: Type of Lesion: MAMMARY GLAND",active; positive
O=C(O)[C@@H](O)[C@@H](O)[C@H](O)[C@@H](O)C(=O)[O-].O=C(O)[C@@H](O)[C@@H](O)[C@H](O)[C@@H](O)C(=O)[O-].O=C(O)[C@@H](O)[C@@H](O)[C@H](O)[C@@H](O)C(=O)[O-].[Fe+3],carcinogen call,"Species: RAT, Strain/Sex: WISTAR/MALE, Route: INTRAPERITONEAL, Dose: 0, 5 MG/KG IN GLUCOSE SOLUTION 1/D 6 D/WK FOR 3 MO (STUDY DURATION: 1 YR, 3 MO), Tumor Site: Type of Lesion: PERITONEAL CAVITY: MESOTHELIOMA",active; positive
O[C@H]1[C@@H]2O[C@@H]2c2c(ccc3cc4ccc5ccccc5c4nc23)[C@@H]1O,carcinogen call,"Species: MOUSE, Strain/Sex: CD-1/FEMALE, Route: INTRAPERITONEAL, Dose: 0, 175 NMOL (TOTAL DOSE) ADMINISTERED AS 1/7 OF DOSE WITHIN 24 HR AFTER BIRTH, 2/7 OF DOSE AT 8 D OLD, 4/7 OF DOSE AT 15, Tumor Site: Type of Lesion: LUNG: TUMOR",active; positive
same,carcinogen call,"Species: MOUSE, Strain/Sex: CD-1/MALE, Route: INTRAPERITONEAL, Dose: 0, 175 NMOL (TOTAL DOSE) ADMINISTERED AS 1/7 OF DOSE WITHIN 24 HR AFTER BIRTH, 2/7 OF DOSE AT 8 D OLD, 4/7 OF DOSE AT 15, Tumor Site: Type of Lesion: LIVER: TUMOR",active; positive
C=COc1ccc([N+](=O)[O-])cc1,carcinogen call,"Species: MOUSE, Strain/Sex: B6C3F1/MALE, Route: INTRAPERITONEAL, Dose: 0, 60, 300 NMOL/G BW IN 10 µL TRIOCTANOIN ONCE (STUDY DURATION: 10 MO), Dose: 0, 60, 300 NMOL/G BW IN 10 µL TRIOCTANOIN ONCE (STUDY DURATION: 10 MO), Tumor Site: Type of Lesion: LIVER: HEPATOMA",active; positive
